In brackets after ≈: the same amount, converted by molar mass.
Columns and labels:
Type in all cases: cell-based
[1] = system: Corynebacterium mucifaciens; assay: Minimum Inhibitory Concentration (MIC), C. mucifaciens; conditions: LMG19067, read-out: Minimum Inhibitory Concentration (MIC) C. mucifaciens
From the text: (§5) The Minimum Inhibitory Concentration (MIC) on the microorganisms Corynebacterium striatum, Corynebacterium mucifaciens and Corynebacterium xerosis with the following active agents was compared.

Corynebacterium xerosis = assay: Minimum Inhibitory Concentration (MIC), C. xerosis; conditions: DSM20743, read-out: Minimum Inhibitory Concentration (MIC) C. xerosis
From the text: as §5

Corynebacterium striatum [2] = assay: Minimum Inhibitory Concentration (MIC), C. striatum; conditions: LMG19648, read-out: Minimum Inhibitory Concentration (MIC) C. striatum
From the text: as §5

Corynebacterium striatum [3] = assay: In vitro sensory evaluation of culture odour, C. striatum; conditions: petroselinic acid 0.05 g/l in culture medium, panel of 12 experts
Method: (§1) The four microorganisms were each cultured in a liquid medium comprising 1.6 g/l of KH2PO4, 5.0 g/l of (NH4)2HPO4, 0.38 g/l of Na2SO4, 3.35 g/l of yeast nitrogen base (difco), 0.5 g/l of yeast extract and 0.5 g/l of MgCl2.6H2O, 1.0 g/l of Tween 80, 1.0 g/l of valine, 1.0 g/l of leucine, 1.0 g/l of isoleucine and 1.0 g/l of methionine. Depending on the analyses to be carried out (profile of the odour by GC/MS or sensory evaluation), the various types of culture medium were prepared either in 2 ml of culture (high-throughput screening format in 96-well microtitration plates) or else 200 ml in Erlenmeyer flasks. […]
(§2) The strains were cultured aerobically at 37° C. for 48 hours. The magnitude of the growth was measured with the optical density (OD) at 600 nm. The cultures were subsequently analyzed for volatile odorous compounds by SPME-GC/MS. […]
(§3) For the sensory analysis, the minimum amount of 200 ml of culture medium is necessary for a panel of 12 experts. […] Before the sensory analysis, the cultures were sterilized by filtration and the filtrates were stored at 4° C. until analyzed. In a first phase, the profile of the odour was evaluated on the basis of the strongest odours by the sensory panel, with an intensity grade which varies from 1 to 4 (1—a little, 2—moderate, 3—strong and 4—very strong). […]

[4] = system: Corynebacterium mucifaciens; assay: GC/MS (SPME) analysis of volatile compounds of cultures, C. mucifaciens; conditions: C. mucifaciens culture, 37° C., 48 hours
Method: as §1, with “flasks. For the GC/MS analyses, 2 ml of culture are sufficient but, for the sensory evaluation, for a panel of 12 people, the minimum amount of 200 ml of culture is necessary.” for “flasks.”
as §2
(§4) In order to determine the relative amount of volatile compounds present in the culture medium, a solid phase microextraction (SPME; Supelco, USA), gas chromatography coupled with mass spectrometry (HS-SPME-GC/MS; Fisons, USA), is carried out. […] The mass spectra were recorded over an m/z range of 30-250. […]

[5] = system: Staphylococcus epidermidis; assay: GC/MS (SPME) analysis of volatile compounds of cultures, S. epidermidis; conditions: S. epidermidis culture, 37° C., 48 hours
Method: as §1, with “flasks. For the GC/MS analyses, 2 ml of culture are sufficient but, for the sensory evaluation, for a panel of 12 people, the minimum amount of 200 ml of culture is necessary.” for “flasks.”
as §2, §4

Corynebacterium striatum [6] = assay: GC/MS (SPME) analysis of volatile compounds of cultures, C. striatum; conditions: C. striatum culture, 37° C., 48 hours
Method: as §1, with “flasks. For the GC/MS analyses, 2 ml of culture are sufficient but, for the sensory evaluation, for a panel of 12 people, the minimum amount of 200 ml of culture is necessary.” for “flasks.”
as §2, §4

[7] = system: Corynebacterium mucifaciens; assay: In vitro sensory evaluation of culture odour, C. mucifaciens; conditions: petroselinic acid 0.05 g/l in culture medium, panel of 12 experts
Method: as §1, §2, §3

[8] = system: Staphylococcus epidermidis; assay: In vitro sensory evaluation of culture odour, S. epidermidis; conditions: petroselinic acid 0.05 g/l in culture medium, panel of 12 experts
Method: as §1, §2, §3

[9] = acid added to culture medium (petroselinic 0.05, linolenic 0.5, myristic 0.005, azelaic 0.5 g/l)
[10] = petroselinic acid 0.05 g/l in culture medium

Oc1cc(Cl)ccc1Oc1ccc(Cl)cc1Cl [Triclosan, 2,4,4′-trichloro-2′-hydroxydiphenyl ether]
MIC [1]: 25 µg/mL (≈ 86.3 µM)
MIC (Corynebacterium xerosis): 50 µg/mL (≈ 173 µM)
MIC (Corynebacterium striatum [2]): 10 µg/mL (≈ 34.5 µM)

CCCCCCCCCCC/C=C\CCCCC(=O)O [Petroselinic acid]
description of the odour notes (Corynebacterium striatum [3]): fresher notes with scents described as “green” and “putty”
resulting odour as perceived by the panel of experts (Corynebacterium striatum [3]): more pleasant
aldehydes in the odour profile [4, 9]: noticeable reduction
concentration of ketone compounds [4, 10]: greater concentration
amount of aldehydes [5, 9]: significant reduction
concentration of ketone compounds [5, 10]: greater concentration
amount of aldehydes (Corynebacterium striatum [6]; [9]): significant reduction
concentration of ketone compounds (Corynebacterium striatum [6]; [10]): greater concentration
description of the scent [7]: scent described as “putty”
perception of the odour [7]: more pleasant
description of the odour notes [8]: fresher notes with scents described as “green” and “putty”
resulting odour as perceived by the panel of experts [8]: more pleasant

Source: patent US20180207069A1, “COSMETIC USE OF A MONOUNSATURATED FATTY ACID OR ONE OF ITS SALTS AND/OR OF ITS ESTERS AS DEODORANT ACTIVE AGENT” (L'OREAL, priority 2012, published 2018)
